Key:
[1] = Formation of 1,5-cz-[M(Lig)] from Lig and M^III ions (metal dependent click-zip) (Charts 4, 5); format: physicochemical; details: MOPS/NaOH buffer pH 7.0, TD728, TD827 in 50% i-PrOH; for conversion to 1,5-cz-[M(Lig)], Y^III: TD714 sum of two diastereoisomers
[2] = Formation of 1,5-cz-[Ln(Lig)] from Lig and Ln^III ions (metal dependent click-zip), MOPS/NaOH buffer pH 7.0, analytical HPLC (Charts 1, 2); details: MOPS/NaOH buffer pH 7.0

## [N-]=[N+]=NCc1cccc(CN2CCN(CC(=O)O)CCN(Cc3cccc(C#CC4CCNCC4)n3)CCN(CC(=O)O)CC2)n1 [TD1127]
[1]; 1 week at 80° C.
  conversion to 1,5-cz-[M(Lig)], Sc^III: 29%
  conversion to 1,5-cz-[M(Lig)], Y^III: 83%
[1]; 1 hour at 80° C.
  conversion to 1,5-cz-[M(Lig)], Sc^III: 0%
  conversion to 1,5-cz-[M(Lig)], Y^III: 2%
[2]; after 1 week at 80° C.
  conversion to 1,5-cz-[Ln(Lig)], Ce^III: 7%
  conversion to 1,5-cz-[Ln(Lig)], Dy^III: 80%
  conversion to 1,5-cz-[Ln(Lig)], Er^III: 91%
  conversion to 1,5-cz-[Ln(Lig)], Eu^III: 53%
  conversion to 1,5-cz-[Ln(Lig)], Gd^III: 56%
  conversion to 1,5-cz-[Ln(Lig)], Ho^III: 86%
  conversion to 1,5-cz-[Ln(Lig)], La^III: 18%
  conversion to 1,5-cz-[Ln(Lig)], Lu^III: 97%
  conversion to 1,5-cz-[Ln(Lig)], Nd^III: 25%
  conversion to 1,5-cz-[Ln(Lig)], Pr^III: 15%
  conversion to 1,5-cz-[Ln(Lig)], Sm^III: 46%
  conversion to 1,5-cz-[Ln(Lig)], Tb^III: 72%
  conversion to 1,5-cz-[Ln(Lig)], Tm^III: 93%
  conversion to 1,5-cz-[Ln(Lig)], Yb^III: 95%
[2]; after 1 hour at 80° C.
  conversion to 1,5-cz-[Ln(Lig)], Ce^III: 0%
  conversion to 1,5-cz-[Ln(Lig)], Dy^III: 2%
  conversion to 1,5-cz-[Ln(Lig)], Er^III: 4%
  conversion to 1,5-cz-[Ln(Lig)], Eu^III: 1%
  conversion to 1,5-cz-[Ln(Lig)], Gd^III: 1%
  conversion to 1,5-cz-[Ln(Lig)], Ho^III: 3%
  conversion to 1,5-cz-[Ln(Lig)], La^III: 0%
  conversion to 1,5-cz-[Ln(Lig)], Lu^III: 13%
  conversion to 1,5-cz-[Ln(Lig)], Nd^III: 0%
  conversion to 1,5-cz-[Ln(Lig)], Pr^III: 0%
  conversion to 1,5-cz-[Ln(Lig)], Sm^III: 0%
  conversion to 1,5-cz-[Ln(Lig)], Tb^III: 1%
  conversion to 1,5-cz-[Ln(Lig)], Tm^III: 7%
  conversion to 1,5-cz-[Ln(Lig)], Yb^III: 10%

Source: patent US20250147039A1, “Compounds for complexation of rare earth elements and/or s-, p-, d- block metals, their coordination compounds, peptide conjugates, method of their preparation and use thereof” (USTAV ORGANICKE CHEMIE A BIOCHEMIE AV CR V.V.I., priority 2021, published 2025)
